Data reported in patent US8575158B2, “1-phenyl-substituted heterocyclyl derivatives and their use as prostaglandin D2 receptor modulators” (Actelion Pharmaceuticals Ltd., priority 2010, dated 2013).

Molecular target: T1, hCRTH2 receptor (Homo sapiens, UniProt Q9Y5Y4)
T1 construct: expressed in transfected cells; host or cells: HEK293
T1 sequence (Q9Y5Y4 1-395): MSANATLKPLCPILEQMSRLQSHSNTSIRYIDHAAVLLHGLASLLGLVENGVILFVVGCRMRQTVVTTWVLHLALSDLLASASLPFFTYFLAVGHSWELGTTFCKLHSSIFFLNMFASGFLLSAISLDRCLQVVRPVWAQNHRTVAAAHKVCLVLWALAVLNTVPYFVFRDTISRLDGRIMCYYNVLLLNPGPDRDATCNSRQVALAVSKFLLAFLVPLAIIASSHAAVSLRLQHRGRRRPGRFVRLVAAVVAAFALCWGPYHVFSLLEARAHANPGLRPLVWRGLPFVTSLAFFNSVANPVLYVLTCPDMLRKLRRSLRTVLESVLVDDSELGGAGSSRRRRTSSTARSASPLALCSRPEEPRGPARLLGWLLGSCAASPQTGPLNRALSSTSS
Assay: Radioligand displacement assay (3H-PGD2) on hCRTH2 receptor membranes
Format: binding
Conditions: antagonistic activity

[1] = 3H-PGD2 displacement on HEK293-hCRTH2 membrane fragments
[2] = 3H-PGD2 radioligand displacement, HEK293-hCRTH2 membranes

| SMILES | IC50 [1] [µM] | IC50 [2] [µM] |
| --- | --- | --- |
| O=C(O)COc1ccc(F)cc1C1c2ccccc2CCN1C(=O)CCc1c[nH]c2ccccc12 (racemic) [Example 51, (±)-{4-Fluoro-2-[2-(3-1H-indol-3-yl-propionyl)-1,2,3,4-tetrahydro-isoquinolin-1-yl]-phenoxy}-acetic acid] | 0.0301 |  |
| Cn1cc(CCC(=O)N2CCc3ccccc3C2c2cc(Cl)ccc2OCC(=O)O)c2ccccc21 (racemic) [Example 76, (±)-(4-Chloro-2-{2-[3-(1-methyl-1H-indol-3-yl)-propionyl]-1,2,3,4-tetrahydro-isoquinolin-1-yl}-phenoxy)-acetic acid] | 0.00446 |  |
| O=C(O)COc1ccc(Cl)cc1C1c2ccccc2CCN1C(=O)OCc1ccc(F)cc1F (racemic) [Example 248] | 0.0033 |  |
| Cc1ccc2ccn(CCC(=O)N3CCc4ccccc4C3c3cc(Cl)ccc3OCC(=O)O)c2c1 (racemic) [Example 384] |  | 0.0148 |
| O=C(O)COc1ccc(Cl)cc1C1c2ccccc2CCN1C(=O)NCc1ccccc1F (racemic) [Example 495] |  | 0.0241 |
| O=C(O)COc1ccc(Cl)cc1[C@@H]1c2ccc(F)cc2CCN1C(=O)CCn1ncc2cc(Cl)ccc21 [Example 396] |  | 0.152 |
| O=C(O)COc1ccc(F)cc1C1c2ccccc2CCN1C(=O)NCCc1ccccc1Cl (racemic) [Example 204, (±)-(2-{2-[2-(2-Chloro-phenyl)-ethylcarbamoyl]-1,2,3,4-tetrahydro-isoquinolin-1-yl}-4-fluoro-phenoxy)-acetic acid] | 0.083 |  |
| Cc1ccc(CCC(=O)N2CCc3ccccc3C2c2cc(Cl)ccc2OCC(=O)O)c(C)c1 (racemic) [Example 454] |  | 0.0696 |
| O=C(O)COc1ccc(Cl)cc1C1c2ccccc2CCN1C(=O)COc1cccnc1 (racemic) [Example 416] |  | 0.215 |
| O=C(O)COc1ccc(Cl)cc1C1c2ccccc2CCN1C(=O)CCc1cccc(C(F)(F)F)c1 (racemic) [Example 81, (±)-(4-Chloro-2-{2-[3-(3-trifluoromethyl-phenyl)-propionyl]-1,2,3,4-tetrahydro-isoquinolin-1-yl}-phenoxy)-acetic acid] | 0.0275 |  |
| Cc1ccccc1OCCC(=O)N1CCc2ccccc2C1c1cc(F)ccc1OCC(=O)O (racemic) [Example 147, (±)-{4-Fluoro-2-[2-(3-o-tolyloxy-propionyl)-1,2,3,4-tetrahydro-isoquinolin-1-yl]-phenoxy}-acetic acid] | 0.0576 |  |
| COc1ccc(OC(=O)N2CCc3ccccc3C2c2cc(F)ccc2OCC(=O)O)cc1 (racemic) [Example 173] | 0.102 |  |
| CS(=O)(=O)c1ccc(OCC(=O)O)c(C2c3ccccc3CCN2C(=O)OCc2ccccc2)c1 (racemic) [Example 182] | 0.308 |  |
| COc1ccccc1CNC(=O)N1CCc2ccccc2C1c1cc(F)ccc1OCC(=O)O (racemic) [Example 201] | 0.021 |  |
| O=C(O)COc1ccc(Cl)cc1C1c2ccccc2CN1C(=O)CCn1ncc2c(F)cccc21 (single isomer, unassigned) [Example 547, (4-Chloro-2-{2-[3-(4-fluoro-indazol-1-yl)-propionyl]-2,3-dihydro-1H-isoindol-1-yl}-phenoxy)-acetic acid] |  | 0.272 |
| O=C(O)COc1ccc(Cl)cc1[C@@H]1c2ccc(F)cc2CCN1C(=O)CCn1ncc2c(F)cccc21 [Example 399] |  | 0.144 |
| COc1ccc2onc(CC(=O)N3CCc4ccccc4C3c3cc(Cl)ccc3OCC(=O)O)c2c1 (racemic) [Example 101, (±)-(4-Chloro-2-{2-[2-(5-methoxy-benzo[d]isoxazol-3-yl)-acetyl]-1,2,3,4-tetrahydro-isoquinolin-1-yl}-phenoxy)-acetic acid] | 0.0196 |  |
| O=C(O)COc1ccc(Cl)cc1[C@@H]1c2cccc(F)c2CCN1C(=O)OCc1ccccc1F [Example 359, (S)-1-(2-Carboxymethoxy-5-chloro-phenyl)-5-fluoro-3,4-dihydro-1H-isoquinoline-2-carboxylic acid 2-fluoro-benzyl ester] |  | 0.00179 |
| O=C(O)COc1ccc(Cl)cc1[C@@H]1c2ccc(F)c(F)c2CCN1C(=O)OCc1ccncn1 [Example 309, (S)-1-(2-Carboxymethoxy-5-chloro-phenyl)-5,6-difluoro-3,4-dihydro-1H-isoquinoline-2-carboxylic acid pyrimidin-4-ylmethyl ester] |  | 0.00477 |
| COc1ccccc1OCC(=O)N1Cc2ccccc2C1c1cc(Cl)ccc1OCC(=O)O (racemic) [Example 502] |  | 0.0562 |

| SMILES | IC50 [1] [µM] | IC50 [2] [µM] |
| --- | --- | --- |
| O=C(O)COc1ccc(Cl)cc1C1c2ccccc2CCN1C(=O)COCc1ccccc1Cl (racemic) [Example 106, (±)-(4-Chloro-2-{2-[2-(2-chloro-benzyloxy)-acetyl]-1,2,3,4-tetrahydro-isoquinolin-1-yl}-phenoxy)-acetic acid] | 0.00406 |  |
| O=C(O)COc1ccc(Cl)cc1[C@@H]1c2ccc(F)c(F)c2CCN1C(=O)OCc1cccc(F)c1F [Example 351, (S)-1-(2-Carboxymethoxy-5-chloro-phenyl)-5,6-difluoro-3,4-dihydro-1H-isoquinoline-2-carboxylic acid 2,3-difluoro-benzyl ester] |  | 0.00327 |
| O=C(O)COc1ccc(Cl)cc1C1c2ccccc2CCN1C(=O)CCn1ccc2cc(F)ccc21 (racemic) [Example 379] |  | 0.0168 |
| O=C(O)COc1ccc(Cl)cc1[C@@H]1c2ccc(F)c(F)c2CCN1C(=O)OCc1cccc(F)c1 [Example 350, (S)-1-(2-Carboxymethoxy-5-chloro-phenyl)-5,6-difluoro-3,4-dihydro-1H-isoquinoline-2-carboxylic acid 3-fluoro-benzyl ester] |  | 0.00338 |
| O=C(O)COc1ccc(-c2noc(=S)[nH]2)cc1C1c2ccccc2CCN1C(=O)OCc1ccccc1 (racemic) [Example 214, (±)-1-[2-Carboxymethoxy-5-(5-thioxo-4,5-dihydro-[1,2,4]oxadiazol-3-yl)-phenyl]-3,4-dihydro-1H-isoquinoline-2-carboxylic acid benzyl ester] | 0.147 |  |
| COc1cccc(OC)c1COC(=O)N1CCc2ccccc2C1c1cc(Cl)ccc1OCC(=O)O (racemic) [Example 244] | 0.00767 |  |
| Cn1cc(CCC(=O)N2Cc3ccccc3C2c2cc(Cl)ccc2OCC(=O)O)c2ccccc21 (racemic) [Example 513] |  | 0.0259 |
| O=C(O)COc1ccc(Cl)cc1C1c2ccccc2CCN1C(=O)CCCc1cccc(F)c1 (racemic) [Example 108, (±)-(4-Chloro-2-{2-[4-(3-fluoro-phenyl)-butyryl]-1,2,3,4-tetrahydro-isoquinolin-1-yl}-phenoxy)-acetic acid] | 0.0359 |  |
| O=C(O)COc1ccc(Cl)cc1C1c2ccccc2CN1C(=O)COc1ccc(F)cc1 (racemic) [Example 504] |  | 0.033 |
| O=C(O)COc1ccc(Cl)cc1C1c2ccccc2CCN1C(=O)COc1cncc(Cl)c1 (racemic) [Example 470] |  | 0.152 |
| O=C(O)COc1ccc(Cl)cc1[C@@H]1c2ccc(F)c(F)c2CCN1C(=O)OCc1ccccc1F [Example 349, (S)-1-(2-Carboxymethoxy-5-chloro-phenyl)-5,6-difluoro-3,4-dihydro-1H-isoquinoline-2-carboxylic acid 2-fluoro-benzyl ester] |  | 0.00899 |
| Cc1nnnn1-c1ccc(CC(=O)N2CCc3ccccc3C2c2cc(F)ccc2OCC(=O)O)cc1 (racemic) [Example 55, (±)-[4-Fluoro-2-(2-{2-[4-(5-methyl-tetrazol-1-yl)-phenyl]-acetyl}-1,2,3,4-tetrahydro-isoquinolin-1-yl)-phenoxy]-acetic acid] | 0.8 |  |
| O=C(O)COc1ccc(Cl)cc1[C@@H]1c2ccc(F)cc2CCN1C(=O)CCn1ncc2ccc(Cl)cc21 [Example 401, (4-Chloro-2-{(S)-2-[3-(6-chloro-indazol-1-yl)-propionyl]-6-fluoro-1,2,3,4-tetrahydro-isoquinolin-1-yl}-phenoxy)-acetic acid] |  | 0.0469 |
| Cc1ccc(CCC(=O)N2CCc3ccccc3C2c2cc(Cl)ccc2OCC(=O)O)c(C)n1 (racemic) [Example 455] |  | 0.2 |
| O=C(O)COc1ccc(Cl)cc1C1c2ccccc2CCN1C(=O)C1CC1c1ccccc1C(F)(F)F (single isomer, unassigned) [Example 156, (±)-(4-Chloro-2-{2-[(trans)-2-(2-trifluoromethyl-phenyl)-cyclopropanecarbonyl]-1,2,3,4-tetrahydro-iso-quinolin-1-yl}-phenoxy)-acetic acid (diatereoisomer 2)] | 0.0142 |  |
| O=C(O)COc1ccc(Cl)cc1C1c2ccc(F)cc2CN1C(=O)OCc1ccccc1 (racemic) [Example 500] |  | 0.0129 |
| COc1cc(OC)c2ccn(CCC(=O)N3CCc4ccccc4C3c3cc(Cl)ccc3OCC(=O)O)c2n1 (racemic) [Example 376] |  | 0.0325 |
| O=C(O)COc1ccc(F)cc1C1c2ccccc2CCN1C(=O)COc1ccccc1 (racemic) [Example 125, (±)-{4-Fluoro-2-[2-(2-phenoxy-acetyl)-1,2,3,4-tetrahydro-isoquinolin-1-yl]-phenoxy}-acetic acid] | 0.175 |  |
| Cn1cc(CCC(=O)N2CCc3ccccc3C2c2cc(F)ccc2OCC(=O)O)c2ccccc21 (racemic) [Example 66, (±)-(4-Fluoro-2-{2-[3-(1-methyl-1H-indol-3-yl)-propionyl]-1,2,3,4-tetrahydro-isoquinolin-1-yl}-phenoxy)-acetic acid] | 0.0275 |  |
| O=C(O)COc1ccc(Cl)cc1C1c2ccccc2CCN1C(=O)Cc1c[nH]c2ccc(F)cc12 (racemic) [Example 91, (±)-(4-Chloro-2-{2-[2-(5-fluoro-1H-indol-3-yl)-acetyl]-1,2,3,4-tetrahydro-isoquinolin-1-yl}-phenoxy)-acetic acid] | 0.113 |  |
